Results taken from patent US20240246964A1 (Arbutus Biopharma Corporation, priority 2021, published 2024).

Experiments:
human PD-L1 = human PD-L1 (Homo sapiens (Human), UniProt Q9NZQ7); assay: T cell activation luciferase reporter cell culture system (T Cell Activation Assay); format: cell-based; details: luciferase reporter assay; PD-L1 aAPC/CHO-K1 cells with PD-1 effector Jurkat T cells
[1] = target: PD-L1 His protein / PD-1 Fc protein (Homo sapiens (Human), UniProt Q9NZQ7); assay: HTRF Assay (PD-1/PD-L1 interaction); format: binding; details: PD-L1 His 6 nM, PD-1 Fc 6 nM
Sequence of PD-L1 His protein / PD-1 Fc protein (Q9NZQ7 19-238): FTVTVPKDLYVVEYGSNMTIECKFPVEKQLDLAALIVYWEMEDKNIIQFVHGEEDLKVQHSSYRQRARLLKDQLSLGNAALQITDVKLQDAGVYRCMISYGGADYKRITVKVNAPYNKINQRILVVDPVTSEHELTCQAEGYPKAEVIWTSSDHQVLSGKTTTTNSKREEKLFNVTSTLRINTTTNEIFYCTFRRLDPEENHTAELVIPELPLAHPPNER

Sequence of human PD-L1 (Q9NZQ7 19-290): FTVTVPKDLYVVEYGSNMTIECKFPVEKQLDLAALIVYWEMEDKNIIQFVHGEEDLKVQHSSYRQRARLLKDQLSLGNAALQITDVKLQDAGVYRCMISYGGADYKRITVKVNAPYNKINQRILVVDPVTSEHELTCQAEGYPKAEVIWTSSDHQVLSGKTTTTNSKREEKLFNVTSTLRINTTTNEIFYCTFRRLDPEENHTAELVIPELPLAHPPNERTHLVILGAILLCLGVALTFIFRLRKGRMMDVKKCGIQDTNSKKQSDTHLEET

Compound | EC50 (human PD-L1) | IC50 [1]
COc1nc(-c2cccc(-c3nccc(-c4ccc(CNC[C@@H]5CCC(=O)N5)c(OC)n4)c3Cl)c2Cl)ccc1CNC[C@@H]1CCC(=O)N1 [Compound 575, (S)-5-((((3′-Chloro-2′-(2-chloro-3-(6-methoxy-5-(((((S)-5-oxopyrrolidin-2-yl)methyl)amino)methyl)pyridin-2-yl)phenyl)-6-methoxy-[2,4′-bipyridin]-5-yl)methyl)amino)methyl)pyrrolidin-2-one] | 14.1 nM | 0.11 nM
COc1cc(-c2nccc(-c3cccc(-c4ccc5c(CNC6CCN(C(C)=O)CC6)cn(C)c5n4)c3Cl)c2Cl)ccc1CN1CC2(CNC(=O)C2)C1 [Compound 579, 2-(4-(4-(3-(3-(((1-Acetylpiperidin-4-yl)amino)methyl)-1-methyl-1H-pyrrolo[2,3-b]pyridin-6-yl)-2-chlorophenyl)-3-chloropyridin-2-yl)-2-methoxybenzyl)-2,6-diazaspiro[3.4]octan-7-one] | 101 nM | 0.3 nM
COc1cc(-c2nccc(-c3cccc(-c4ccc5c(CN(C)C6CCN(C(C)=O)CC6)cn(C)c5n4)c3Cl)c2Cl)ccc1CNC1CCOCC1 [Compound 600, 1-(4-(((6-(2-Chloro-3-(3-chloro-2-(3-methoxy-4-(((tetrahydro-2H-pyran-4-yl)amino)methyl)phenyl)pyridin-4-yl)phenyl)-1-methyl-1H-pyrrolo[2,3-b]pyridin-3-yl)methyl)(methyl)amino)piperidin-1-yl)ethan-1-one] | 32.6 nM | 0.25 nM
COc1cc(-c2nccc(-c3cccc(-c4ccc5c(CN(C)C6CCN(C(C)=O)CC6)cn(C)c5n4)c3Cl)c2Cl)ccc1CN1CC2(C1)CN(C(C)=O)C2 [Compound 601, 1-(4-(((6-(3-(2-(4-((6-Acetyl-2,6-diazaspiro[3.3]heptan-2-yl)methyl)-3-methoxyphenyl)-3-chloropyridin-4-yl)-2-chlorophenyl)-1-methyl-1H-pyrrolo[2,3-b]pyridin-3-yl)methyl)(methyl)amino)piperidin-1-yl)ethan-1-one] | 110 nM | 0.23 nM
COc1cc(-c2nccc(-c3cccc(-c4ccc5c(CN(C)C6CCN(C(C)=O)CC6)cn(C)c5n4)c3Cl)c2Cl)ccc1CN1CC2(CNC(=O)C2)C1 [Compound 603, 2-(4-(4-(3-(3-(((1-Acetylpiperidin-4-yl)(methyl)amino)methyl)-1-methyl-1H-pyrrolo[2,3-b]pyridin-6-yl)-2-chlorophenyl)-3-chloropyridin-2-yl)-2-methoxybenzyl)-2,6-diazaspiro[3.4]octan-7-one] | 49.7 nM | 0.52 nM
COc1cc(-c2nccc(-c3cccc(-c4ccc5c(CNC6CCOCC6)cn(C)c5n4)c3Cl)c2Cl)ccc1CN1CC2(CNC(=O)C2)C1 [Compound 605, 2-(4-(3-Chloro-4-(2-chloro-3-(1-methyl-3-(((tetrahydro-2H-pyran-4-yl)amino)methyl)-1H-pyrrolo[2,3-b]pyridin-6-yl)phenyl)pyridin-2-yl)-2-methoxybenzyl)-2,6-diazaspiro[3.4]octan-7-one] | 636 nM | 0.34 nM
COc1cc(-c2nccc(-c3cccc(-c4ccc5c(CNC6CCOCC6)cn(C)c5n4)c3Cl)c2Cl)ccc1CNCCO [Compound 606, 2-((4-(3-Chloro-4-(2-chloro-3-(1-methyl-3-(((tetrahydro-2H-pyran-4-yl)amino)methyl)-1H-pyrrolo[2,3-b]pyridin-6-yl)phenyl)pyridin-2-yl)-2-methoxybenzyl)amino)ethan-1-ol] | 237 nM | 0.12 nM
COc1cc(-c2nccc(-c3cccc(-c4ccc5c(CNC6CCOCC6)cn(C)c5n4)c3Cl)c2Cl)ccc1CN1CC2(C1)CN(C(C)=O)C2 [Compound 609, 1-(6-(4-(3-Chloro-4-(2-chloro-3-(1-methyl-3-(((tetrahydro-2H-pyran-4-yl)amino)methyl)-1H-pyrrolo[2,3-b]pyridin-6-yl)phenyl)pyridin-2-yl)-2-methoxybenzyl)-2,6-diazaspiro[3.3]heptan-2-yl)ethan-1-one] | 10000 nM | 0.22 nM
COc1cc(-c2ccnc(-c3cccc(-c4ccc(CNC5CCN(C(C)=O)CC5)c(OC)n4)c3Cl)c2Cl)ccc1CNC1CCN(C(C)=O)CC1 [Compound 621, 1-(4-(((6-(3-(4-(4-(((1-Acetylpiperidin-4-yl)amino)methyl)-3-methoxyphenyl)-3-chloropyridin-2-yl)-2-chlorophenyl)-2-methoxypyridin-3-yl)methyl)amino)piperidin-1-yl)ethan-1-one] | 303 nM | 1.54 nM
COc1nc(-c2cccc(-c3ccnc(-c4ccc(CNC5CCN(C(C)=O)CC5)c(OC)n4)c3Cl)c2Cl)ccc1CNC1CCN(C(C)=O)CC1 [Compound 627, 1-(4-(((6-(3-(5′-(((1-Acetylpiperidin-4-yl)amino)methyl)-3-chloro-6′-methoxy-[2,2′-bipyridin]-4-yl)-2-chlorophenyl)-2-methoxypyridin-3-yl)methyl)amino)piperidin-1-yl)ethan-1-one] | 43.4 nM | 1.96 nM
COc1nc(-c2cccc(-c3ccnc(-c4ccc(CN5CC6(CNC(=O)C6)C5)c(OC)n4)c3Cl)c2Cl)ccc1CN1CC2(CNC(=O)C2)C1 [Compound 628, 2-((3′-Chloro-4′-(2-chloro-3-(6-methoxy-5-((7-oxo-2,6-diazaspiro[3.4]octan-2-yl)methyl)pyridin-2-yl)phenyl)-6-methoxy-[2,2′-bipyridin]-5-yl)methyl)-2,6-diazaspiro[3.4]octan-7-one] | 27.1 nM | 0.28 nM
COc1nc(-c2cccc(-c3ccnc(-c4ccc(CNC5CCOCC5)c(OC)n4)c3Cl)c2Cl)ccc1CNC1CCOCC1 [Compound 629, N-((6-(2-Chloro-3-(3-chloro-6′-methoxy-5′-(((tetrahydro-2H-pyran-4-yl)amino)methyl)-[2,2′-bipyridin]-4-yl)phenyl)-2-methoxypyridin-3-yl)methyl)tetrahydro-2H-pyran-4-amine] | 114 nM | 0.66 nM
COc1nc(-c2cccc(-c3ccnc(-c4ccc(CNC[C@@H]5CCC(=O)N5)c(OC)n4)c3Cl)c2Cl)ccc1CNC[C@@H]1CCC(=O)N1 [Compound 630, (S)-5-((((6-(2-Chloro-3-(3-chloro-6′-methoxy-5′-(((((S)-5-oxopyrrolidin-2-yl)methyl)amino)methyl)-[2,2′-bipyridin]-4-yl)phenyl)-2-methoxypyridin-3-yl)methyl)amino)methyl)pyrrolidin-2-one] | 49.6 nM | 0.17 nM
COc1cc(-c2nccc(-c3cccc(-c4ccc5c(CN(C)C6CCOCC6)cn(C)c5n4)c3Cl)c2Cl)ccc1CNC1CCOCC1 [Compound 635, N-((6-(2-Chloro-3-(3-chloro-2-(3-methoxy-4-(((tetrahydro-2H-pyran-4-yl)amino)methyl)phenyl)pyridin-4-yl)phenyl)-1-methyl-1H-pyrrolo[2,3-b]pyridin-3-yl)methyl)-N-methyltetrahydro-2H-pyran-4-amine] | 237 nM | 0.19 nM
COc1nc(-c2cccc(-c3cncc(-c4ccc(CNC5CCN(C(C)=O)CC5)c(OC)n4)c3Cl)c2Cl)ccc1CNC1CCN(C(C)=O)CC1 [Compound 639, 1-(4-(((6-(3-(5-(((1-acetylpiperidin-4-yl)amino)methyl)-4′-chloro-6-methoxy-[2,3′-bipyridin]-5′-yl)-2-chlorophenyl)-2-methoxypyridin-3-yl)methyl)amino)piperidin-1-yl)ethan-1-one] | 23 nM | 0.19 nM
COc1nc(-c2cccc(-c3cncc(-c4ccc(CN5CC6(CNC(=O)C6)C5)c(OC)n4)c3Cl)c2Cl)ccc1CN1CC2(CNC(=O)C2)C1 [Compound 640, 2-((4′-Chloro-5′-(2-chloro-3-(6-methoxy-5-((7-oxo-2,6-diazaspiro[3.4]octan-2-yl)methyl)pyridin-2-yl)phenyl)-6-methoxy-[2,3′-bipyridin]-5-yl)methyl)-2,6-diazaspiro[3.4]octan-7-one] | 26.2 nM | 0.22 nM
COc1cc(-c2cncc(-c3cccc(-c4ccc(CNC5CCN(C(C)=O)CC5)c(OC)n4)c3Cl)c2Cl)ccc1CNC1CCN(C(C)=O)CC1 [Compound 641, 1-(4-(((6-(3-(5-(4-(((1-Acetylpiperidin-4-yl)amino)methyl)-3-methoxyphenyl)-4-chloropyridin-3-yl)-2-chlorophenyl)-2-methoxypyridin-3-yl)methyl)amino)piperidin-1-yl)ethan-1-one] | 107 nM | 0.09 nM
COc1cc(-c2cncc(-c3cccc(-c4ccc(CN5CC6(CNC(=O)C6)C5)c(OC)n4)c3Cl)c2Cl)ccc1CN1CC2(CNC(=O)C2)C1 [Compound 642, 2-(4-(4-Chloro-5-(2-chloro-3-(6-methoxy-5-((7-oxo-2,6-diazaspiro[3.4]octan-2-yl)methyl)pyridin-2-yl)phenyl)pyridin-3-yl)-2-methoxybenzyl)-2,6-diazaspiro[3.4]octan-7-one] | 181 nM | 0.19 nM
COc1nc(-c2cccc(-c3nccc(-c4ccc(CN5CC6(CNC(=O)C6)C5)c(OC)n4)c3Cl)c2Cl)ccc1CNC1CCN(C(C)=O)CC1 [Compound 680, 2-((2′-(3-(5-(((1-Acetylpiperidin-4-yl)amino)methyl)-6-methoxypyridin-2-yl)-2-chlorophenyl)-3′-chloro-6-methoxy-[2,4′-bipyridin]-5-yl)methyl)-2,6-diazaspiro[3.4]octan-7-one] | 26.3 nM | 0.03 nM
COc1nc(-c2cccc(-c3nccc(-c4ccc(CN5CC6(CNC(=O)C6)C5)c(OC)n4)c3Cl)c2Cl)ccc1CN1CCC(O)CC1 [Compound 681, 2-((3′-Chloro-2′-(2-chloro-3-(5-((4-hydroxypiperidin-1-yl)methyl)-6-methoxypyridin-2-yl)phenyl)-6-methoxy-[2,4′-bipyridin]-5-yl)methyl)-2,6-diazaspiro[3.4]octan-7-one] | 23.4 nM | 1.07 nM
COc1nc(-c2cccc(-c3nccc(-c4ccc(CNC5CCN(C(C)=O)CC5)c(OC)n4)c3Cl)c2Cl)ccc1CN1CC2(CNC(=O)C2)C1 [Compound 682, 2-((6-(3-(5-(((1-Acetylpiperidin-4-yl)amino)methyl)-3′-chloro-6-methoxy-[2,4′-bipyridin]-2′-yl)-2-chlorophenyl)-2-methoxypyridin-3-yl)methyl)-2,6-diazaspiro[3.4]octan-7-one] | 24.6 nM | 0.17 nM
